Results published in patent publication US4105798A, “Perfluoro polycyclic compounds for use as synthetic blood and perfusion media” (Sun Ventures, Inc., priority 1977, dated 1978).

Columns and labels:
[1] = optical density / appearance of emulsion; assay type: physicochemical; conditions: for optical density of emulsion: emulsions prepared in the same manner
Procedure: (§1) The relative stability of a PFDMA emulsion and PFMA is excellent in that it is stable indefinitely, (e.g., over 6 months) at 4°-7° C whereas the PFD emulsion breaks down in several days at room temperature and in several weeks at 4°-7° C. PFTBA is also excellent. See for example the Journal of Microvascular Research, August 1974.

[2] = percentage of injected PF material still in the liver of mice after stated weeks; assay type: in vivo
Excerpt: As indicated above, retention of the material in the body is important. The data below compare perfluorinated tributylamine (PFTBA), decalin (PFD), and methyldecalin (PFMD), with certain of the perfluorinated polycyclic hydrocarbons of this invention which have been obtained by perfluorinating the said polycyclic materials with just CoF3. Thus, in the table below "PFDMA" is the perfluorinated product derived from dimethyladamantane, i.e. a mixture of perfluorotrimethylbicyclo [3.3.1]nonane containing about 25 percent of other materials, principally perfluorinated dimethyladamantane. "PFMA" is the perfluorinated product of methyladamantane i.e., a mixture of perfluorodimethylbicyclo [3.3.1]nonanecontaining an unidentified amount of other compounds including perfluoromethyladamantane. Finally, "PFTHDCP" is the product of tetrahydrodicyclopentadiene, i.e. perfluorobicyclo [5.3.0] decane containing about 50 percent of other materials, principally perfluorotetrahydrodicyclopentadiene.
Emulsions containing 10% of the material to be tested, surfactant and water are made up and tested in the manner specified in Science, Vol. 181, August 1973, page 681. Mice were injected with the various emulsions. The mice were killed at intervals thereafter, the liver analyzed, and the percentage of original amount of PF material injected and still in the liver was determined.

[3] = LD50 after infusion of emulsion; assay type: in vivo; conditions: emulsions: 10.9% PFD, 10% PFDMA, 5% PFMA, 10% PFTBA
Excerpt: The LD50 after infusion (ml/kg) of our materials compared with others are follows: […]

[4] = relative emulsion stability; assay type: physicochemical
Procedure: as §1

## FC1(F)C(F)(F)C(F)(F)C2(F)C(F)(F)C(F)(F)C(F)(F)C(F)(F)C2(F)C1(F)F (centres unmarked) [PFD, perfluorodecalin]
[1]
  optical density of emulsion: 0.4
[2]; mouse, in vivo, 20160 min
  Percent of Dose in Liver After Stated Weeks: 4%
[2]; mouse, in vivo, 60480 min
  Percent of Dose in Liver After Stated Weeks: 2%
[2]; mouse, in vivo, 120960 min
  Percent of Dose in Liver After Stated Weeks: 2%
[3]
  LD50 after infusion, 1 Hr.: 190 mL/kg
  LD50 after infusion, 3 Days: 160 mL/kg
  LD50 after infusion, 7 Days: 159 mL/kg
[4]; 4°-7° C
  time to emulsion break down: several weeks
[4]; room temperature
  time to emulsion break down: several days

## FC(F)(F)C(F)(F)C(F)(F)C(F)(F)N(C(F)(F)C(F)(F)C(F)(F)C(F)(F)F)C(F)(F)C(F)(F)C(F)(F)C(F)(F)F [PFTBA, perfluorinated tributylamine]
[1]
  optical density of emulsion: 2.2
[1]; in words
  appearance of emulsion: very milky in appearance
[2]; mice, injected emulsion containing 10% of material, 2 weeks
  Percent of Dose in Liver After Stated Weeks: 38%
[2]; mice, injected emulsion containing 10% of material, 6 weeks
  Percent of Dose in Liver After Stated Weeks: 30%
[2]; mice, injected emulsion containing 10% of material, 12 weeks
  Percent of Dose in Liver After Stated Weeks: 30%
[2]; mice, injected emulsion containing 10% of material, 20 weeks
  Percent of Dose in Liver After Stated Weeks: 30%
[3]
  LD50 after infusion, 1 Hr.: 200 mL/kg
  LD50 after infusion, 3 Days: 120 mL/kg
  LD50 after infusion, 7 Days: 120 mL/kg
[4]; emulsion
  relative stability of emulsion (in words): excellent

## methyldecalin [PFMD]
[2]; mouse, in vivo, 20160 min
  Percent of Dose in Liver After Stated Weeks: 30%
[2]; mouse, in vivo, 60480 min
  Percent of Dose in Liver After Stated Weeks: 19%
[2]; mouse, in vivo, 120960 min
  Percent of Dose in Liver After Stated Weeks: 2%
[2]; mouse, in vivo, 201600 min
  Percent of Dose in Liver After Stated Weeks: 2%
